Experimental data reported in patent US6117845A, “C-linked analogs of N-(4-hydroxyphenyl) retinamide” (Ohio State University Research Foundation, priority 1999, dated 2000).

Tests used:
Acid stability of 4-HBR = format: physicochemical; conditions: 0.1 N methanolic HCl at 37° C. for 2 hours
[1] = test system: serum retinol-binding protein (RBP); assay: Serum retinol binding protein binding study (competition with tritiated all-trans retinol); conditions: human RBP 0.1 μg/μl, 250 nM all-trans-(3H)-ROL, 4° C., FIG. 3
Protocol: RBP (human) was obtained commercially (Sigma). RBP (0.1 μg/μl) was incubated with 250 nM all-trans-(^3 H)-ROL (approx. 5 Ci/mmole) with and without competing ligands at 4° C. for 3 hours. Tritiated retinoid-labeled protein-containing extracts were treated with dextran-coated charcoal to remove unbound ligand before subjecting samples to sedimentation analysis on 5 to 20% sucrose density gradients. ^14 C-Labeled proteins were included with samples as internal sedimentation standards. Gradients were centrifuged at 257,000 g for 20 hours at 4° C. followed by fractionation and analysis of radioactivity.

MCF7 cells = assay: Assay for cell growth inhibition, MCF-7 cells, 72 h; format: cell-based; conditions: human mammary carcinoma MCF-7 cells, 0.1, 1 or 10 μM, FIG. 1
Protocol: (§1) All-trans retinoic acid (atRA) was purchased from Eastman Kodak, Rochester, N.Y. Stock solutions were prepared in 100% ethanol and concentrations were determined on a Shimadzu UV-2100 spectrophotometer (4-HBR: λmax=380nm, ε=39,891; 4-HPR: λmax=365 nm, ε=47,900; atRA: λmax=340 nm, ε=45,300). Compound purity was assessed using a Waters HPLC-PDA with a 600E solvent delivery system using a Zorbax ODS, 250×4.6 mm, 5 micron column (Phenomenex, Torrance, Calif.). The column was equilibrated in 88% methanol/water with 10 mM ammonium acetate (flow rate of 1 ml/min). 4-HBR eluted at about 18 min., 4-HPR at about 12 min., and atRA at about 8 min with estimated purities of 96%, 100% and 100% respectively. […]
(§2) Cells (100,000 cells) were passed into a 25 cm^3 flask in 10 ml of medium. […] Two 20 μl aliquots were counted from each treatment group on a Nikon Diaphot 200 fluorescent microscope. Four out of five fields were counted on each side of the hemocytometer. Fluorescence was used to count the number of live cells and phase-contrast was used to count the number of total cells. The average number of live cells per field was divided by the total number of cells per field and expressed as a percentage of the control.
The antiproliferative activity of 4-HPR, 4-HBR, and atRA against MCF-7 human mammary tumor cell culture models was determined using the above-described protocol. […]

LA1-15n cells = assay: Assay for cell growth inhibition, LA1-15n cells, 48 h; format: cell-based; conditions: human neuroblastoma LA1-15n cells, 0.1, 1 or 10 μM, FIG. 2
Protocol: as §1, with “respectively. Retinoids were blanketed with argon and stored at -70° C. until use.” for “respectively.”
as §2, with “control. […]” for “control.”

## CC1=C(/C=C/C(C)=C/C=C/C(C)=C/C(=O)Cc2ccc(O)cc2)C(C)(C)CCC1 [compound 16, 4-hydroxybenzyl retinone]
Acid stability of 4-HBR
  stability under acidic conditions: remained intact
[1]
  affinity for serum RBP relative to 4-HPR: binds to serum RBP with less affinity than does 4-HPR
MCF7 cells
  growth inhibition of MCF7 cells (viability, live cells as percentage of control): inhibits the growth of MCF7 cells in a dose-dependant fashion
LA1-15n cells
  growth inhibition of LA1-15n cells (viability, live cells as percentage of control): inhibits the growth of LA1-15n cells in a dose-dependant fashion
